Where two headings read alike, the source gives them in different places.
How the values were obtained:
[1] = Mouse tissue staining experiment, fluorescence of extracted organs; conditions: normal mouse, organs extracted 4 hours after injection; FIG. 9
Source text: (§1) Each graph represents the fluorescence signal of each organ.

[2] = tested on: A549 cancer cells, which do not express folate receptors, and H522 cancer cells, which express folate receptors; assay: Fluorescent contrast observation of cancer cells with and without folate receptor expression; type: cell-based; conditions: A549 (no folate receptors) vs H522 (folate receptors); FIG. 5A, 5B
Source text: Accordingly, it was identified that FMK-2 had no cytotoxicity.

[3] = mouse, in vivo
Source text: as §1

Compound | fluorescence signal of each organ [1] | fluorescence expression in cancer cells depending on folate receptor expression [2] | fluorescence signal of each organ [3]
CC1(C)C(/C=C/C2=C(Cl)C(=C/C=C3/N(CCC(=O)O)c4ccc(S(=O)(=O)O)cc4C3(C)C)/CCC2)=[N+](CCC(=O)O)c2ccc(S(=O)(=O)[O-])cc21 [Compound 1, 3-(2-((E)-2-((E)-3-(2-((E)-1-(2-carboxyethyl)-3,3-dimethyl-5-sulfoindolin-2-ylidene)ethylidene)-2-chlorocyclohex-1-en-1-yl)vinyl)-3,3-dimethyl-5-sulfo-3H-indol-1-ium-1-yl)propanoate] | signals were higher in the liver and kidneys compared to other organs |  | 
CC1(C)C(/C=C/C2=C(Cl)C(=C/C=C3/N(CCC(=O)NC4O[C@@H](CO)[C@H](O)[C@@H](O)[C@H]4O)c4ccc(S(=O)(=O)O)cc4C3(C)C)/CCC2)=[N+](CCC(=O)NC2O[C@H](CO)[C@@H](O)[C@H](O)[C@@H]2O)c2ccc(S(=O)(=O)O)cc21 (stereo partly drawn) [Compound 2, 2-((E)-2-((E)-2-chloro-3-(2-((E)-3,3-dimethyl-1-(3-oxo-3-(((3R,4R,5R,6S)-3,4,5-trihydroxy-6-(hydroxymethyl)tetrahydro-2H-pyran-2-yl)amino)propyl)-5-sulfoindolin-2-ylidene)ethylidene)cyclohex-1-en-1-yl)vinyl)-3,3-dimethyl-1-(3-oxo-3-(((3S,4S,5S,6R)-3,4,5-trihydroxy-6-(hydroxymethyl)tetrahydro-2H-pyran-2-yl)amino)propyl)-5-sulfo-3H-indol-1-ium] |  | expressed fluorescence in cancer cells regardless of whether folate receptors were expressed | overall signals were identified in all organs
CC1(C)C(/C=C/C2=C(SCCOCCOCCNC(=O)CCC(NC(=O)c3ccc(NCc4cnc5nc(N)nc(O)c5n4)cc3)C(=O)O)C(=C/C=C3/N(CCC(=O)O)c4ccc(S(=O)(=O)O)cc4C3(C)C)/CCC2)=[N+](CCC(=O)O)c2ccc(S(=O)(=O)[O-])cc21 (stereo not shown) [Compound 4, 2-((E)-2-((E)-2-((1-(4-(((2-amino-4-oxo-1,4-dihydropteridin-7-yl)methyl)amino)phenyl)-3-carboxy-1,6-dioxo-10,13-dioxa-2,7-diazapentadecan-15-yl)thio)-3-(2-((E)-1-(2-carboxyethyl)-3,3-dimethyl-5-sulfoindolin-2-ylidene)ethylidene)cyclohex-1-en-1-yl)vinyl)-1-(2-carboxyethyl)-3,3-dimethyl-5-sulfo-3H-indol-1-ium] | signals were identified in the kidneys and small intestine |  | 

From patent publication US20250275943A1, “COMPOSITION FOR CANCER DIAGNOSIS TARGETING TUMOR AND/OR TUMOR MICROENVIRONMENT AND USE THEREOF” (Korea University Research and Business Foundation, priority 2024, published 2025)
